Results as given in patent publication US10889607B2, “Sialic acid analogs” (Ultragenyx Pharmaceutical Inc., priority 2011, dated 2021).
Like-named read-outs stand apart in the source and are kept apart here.

Assays:
[1] = Sialic acid/prodrug single dose PO crossover pharmacokinetics study; type: in vivo, cynomolgus monkeys; details: for peak serum concentration (Cmax): serum sialic acid, mean n=3, single 100 mg/kg PO, fasted cynomolgus monkeys; for extent of the absorption: sialic acid API vs prodrug, single 100 mg/kg PO, cynomolgus monkeys
From the text: Example 4. Sialic Acid/Prodrug Single Dose PO Crossover Pharmacokinetics Study in Cynomolgus Monkeys
A single oral dose crossover pharmacokinetic study of sialic acid (API) and prodrug (Compound 1—a valine ester of sialic acid as described above) was run in fasted cynomolgus monkeys (n=3). For this study, it was essential that the GI tract of the in vivo model have some similarities to human metabolism in order for the Pep Ti transporter system to be present, thus monkeys were chosen since they carry the same transporter in the gut as humans.
The 100 mg/kg dose level chosen was based on what is known for dosing of sialic acid which has passed complete toxicological evaluation and is safe up to 2,000 mg/kg NOAEL in dogs and rats. On Day 1, three female cynomolgus monkeys were dosed with 100 mg/kg sialic acid (API) and on Day 8 the same three cynomolgus monkeys were dosed with 100 mg/kg of the prodrug. Serum was collected at the following timepoints: predose, then 5 min, 15 min, 30 min, 1 hr, 2 hrs, 4 hrs, 8 hrs, 12 hrs and 24 hrs postdose. Urine samples were collected predose overnight, then at intervals 0-4 hrs, 4-8 hrs, 8-12 hrs and 12-24 hrs post dose. The data in FIG. 2A show the mean absorption values (n=3) of serum sialic acid on Days 1 and 8. The prodrug peak serum concentration is earlier (1 hr) than sialic acid API (2 hrs). […] The pharmacokinetic data in FIGS. 2B and 2C show group averages of sialic acid concentrations on Days 1 and 8.

[2] = dog, in vivo; cited from earlier work
[3] = rat, in vivo; cited from earlier work

Row | SMILES | peak serum concentration (Cmax) [1] | extent of the absorption [1] | NOAEL [2] | NOAEL [3]
1 | CC(=O)NC1C(O)CC(O)(C(=O)O)OC1C(O)C(O)COC(=O)C(N)C(C)C (stereo not drawn) [Compound 1, 5-Acetylamino-6-[3-(2-amino-3-methyl-butyryloxy)-1,2-dihydroxy-propyl]-2,4-dihydroxy-tetrahydro-pyran-2-carboxylic acid] | 857 ng/mL | similar | – | –
2 | CC(=O)N[C@H]1[C@H]([C@H](O)[C@H](O)CO)OC(O)(C(=O)O)C[C@@H]1O (stereo partly drawn) [sialic acid, N-acetylneuraminic acid] | 1623 ng/mL | similar | 2,000 mg/kg | 2,000 mg/kg
